pIC50: −log10 of the molar value.
Assays:
[1] = target: GST-tagged truncated LRRK2 (Homo sapiens (Human), UniProt Q5S007); assay: LRRK2 Lantha Screen kinase assay; format: biochemical; details: geometric mean of 2-5 determinations unless otherwise indicated (a: >=6 determinations; b: single determination); read-out: LRRK2 WT IC50
Experimental: LRRK2 kinase activity was measured using Lantha Screen technology from Invitrogen. GST-tagged truncated LRRK2 from Invitrogen (Cat # PV4874) was incubated with a fluorescein-labeled peptide substrate based upon ezrin/radixin/moesin (ERM), also known as LRRKtide (Invitrogen cat #PR8976A), in the presence of a dose response of compound. Upon completion, the assay was stopped and detected with a terbium labeled anti-phospho-ERM antibody (Invitrogen, cat #PR8975A). […] Aliquots (3.5 μL) of the 100% DMSO dose response were mixed with 46.5 μL water then 1 μL of this mixture was added to the 3 μL substrate mix in the 384-well plate. The kinase reaction was started with 3 μL of a working solution of LRRK2 enzyme at a concentration of 4 μg/mL. […] The reaction was allowed to progress at room temperature for two hours and then stopped with the addition of 7 μL of detection buffer (20 mM Tris pH 7.6, 0.01% NP-40, 0.02% NaN3, 6 mM EDTA with 2 nM terbium labeled anti-phospho-ERM).

mutant G2019S LRRK2 = mutant G2019S LRRK2 (Homo sapiens (Human), UniProt Q5S007, G2019S); assay: LRRK2 Lantha Screen kinase assay, mutant enzyme; format: biochemical; details: geometric mean of 2-5 determinations unless otherwise indicated (a: >=6 determinations; b: single determination)
Chain of mutant G2019S LRRK2 (Q5S007 970-2527 G2019S): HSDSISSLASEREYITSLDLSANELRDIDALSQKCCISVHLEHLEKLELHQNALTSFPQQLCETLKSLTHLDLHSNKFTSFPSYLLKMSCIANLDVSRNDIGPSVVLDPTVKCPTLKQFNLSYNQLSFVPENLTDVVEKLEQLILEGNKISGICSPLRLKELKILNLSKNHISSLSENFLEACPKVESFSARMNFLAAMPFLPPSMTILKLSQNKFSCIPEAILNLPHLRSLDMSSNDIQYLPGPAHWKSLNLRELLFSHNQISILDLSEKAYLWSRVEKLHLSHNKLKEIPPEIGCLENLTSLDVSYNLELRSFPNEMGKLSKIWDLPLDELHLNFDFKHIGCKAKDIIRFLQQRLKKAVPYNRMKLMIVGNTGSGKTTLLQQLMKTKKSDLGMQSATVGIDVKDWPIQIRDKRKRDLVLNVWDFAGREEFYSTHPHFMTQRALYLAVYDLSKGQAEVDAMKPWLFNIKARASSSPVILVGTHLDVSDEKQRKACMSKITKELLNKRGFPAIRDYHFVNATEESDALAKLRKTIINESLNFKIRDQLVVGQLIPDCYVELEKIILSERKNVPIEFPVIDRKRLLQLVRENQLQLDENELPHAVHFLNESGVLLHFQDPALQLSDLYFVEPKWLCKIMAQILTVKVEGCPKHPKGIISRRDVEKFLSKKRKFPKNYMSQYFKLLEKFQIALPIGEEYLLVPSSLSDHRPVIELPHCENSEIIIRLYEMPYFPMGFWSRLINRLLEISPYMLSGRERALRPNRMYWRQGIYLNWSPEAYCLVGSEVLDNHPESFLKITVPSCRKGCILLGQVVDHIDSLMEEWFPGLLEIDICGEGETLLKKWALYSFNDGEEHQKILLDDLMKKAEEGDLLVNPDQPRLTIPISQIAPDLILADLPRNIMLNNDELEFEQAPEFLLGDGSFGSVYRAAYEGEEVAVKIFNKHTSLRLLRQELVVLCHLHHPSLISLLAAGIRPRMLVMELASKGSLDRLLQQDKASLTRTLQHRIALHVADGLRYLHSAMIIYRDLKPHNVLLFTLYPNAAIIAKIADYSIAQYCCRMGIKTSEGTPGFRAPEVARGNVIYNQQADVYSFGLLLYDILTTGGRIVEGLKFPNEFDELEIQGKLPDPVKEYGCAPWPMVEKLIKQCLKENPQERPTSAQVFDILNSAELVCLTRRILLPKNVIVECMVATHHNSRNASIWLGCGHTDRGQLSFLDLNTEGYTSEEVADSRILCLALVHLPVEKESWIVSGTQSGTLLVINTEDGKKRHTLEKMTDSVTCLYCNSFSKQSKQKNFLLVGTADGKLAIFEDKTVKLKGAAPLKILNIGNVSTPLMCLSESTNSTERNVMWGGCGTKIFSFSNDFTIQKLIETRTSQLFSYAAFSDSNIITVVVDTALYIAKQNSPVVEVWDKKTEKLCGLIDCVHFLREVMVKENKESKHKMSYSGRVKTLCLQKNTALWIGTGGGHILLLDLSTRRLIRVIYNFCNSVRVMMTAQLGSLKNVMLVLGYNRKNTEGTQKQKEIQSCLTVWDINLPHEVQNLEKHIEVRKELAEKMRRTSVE

Chain of GST-tagged truncated LRRK2 (Q5S007 970-2527): as the sequence (Q5S007 970-2527 G2019S) above, with S1050G counted along it

Row | Compound | pIC50 [1] | pIC50 (mutant G2019S LRRK2)
1 | N#Cc1cccc(-c2c[nH]c3ncnc(N4CC5CC(C4)O5)c23)c1 [Example 113, 3-[4-(6-oxa-3-azabicyclo[3.1.1]hept-3-yl)-7H-pyrrolo[2,3-d]pyrimidin-5-yl]benzonitrile] | 7.24 | 6.28
2 | CCC1CN(c2ncnc3[nH]cc(-c4cccc(C#N)c4)c23)CCO1 (stereo not drawn) [Example 140, 3-[4-(2-ethylmorpholin-4-yl)-7H-pyrrolo[2,3-d]pyrimidin-5-yl]benzonitrile] | 7.21 | 7.02
3 | COCC1CN(c2ncnc3[nH]cc(-c4cccc(C#N)c4F)c23)CCO1 (stereo not drawn) [Example 167, 2-fluoro-3-{4-[2-(methoxymethyl)morpholin-4-yl]-7H-pyrrolo[2,3-d]pyrimidin-5-yl}benzonitrile] | 7.21 | 6.43
4 | Cc1cc(-c2c[nH]c3ncnc(N4CCC[C@H](C)C4)c23)cnc1F [Example 49, 5-(6-fluoro-5-methylpyridin-3-yl)-4-[(3S)-3-methylpiperidin-1-yl]-7H-pyrrolo[2,3-d]pyrimidine] | 7.19 | 7.19
5 | N#Cc1ccccc1-c1c[nH]c2ncnc(N3CCOCC3)c12 [Example 82, 2-[4-(morpholin-4-yl)-7H-pyrrolo[2,3-d]pyrimidin-5-yl]benzonitrile] | 7.02 | 6.83
6 | COc1ccc(Cl)cc1-c1c[nH]c2ncnc(N3CCOCC3)c12 [Example 116, 5-(5-chloro-2-methoxyphenyl)-4-(morpholin-4-yl)-7H-pyrrolo[2,3-d]pyrimidine] | 7.07 | 7.17
7 | C[C@H]1CCCN(c2ncnc3[nH]cc(-c4ccccc4F)c23)C1 [Example 47, 5-(2-fluorophenyl)-4-[(3S)-3-methylpiperidin-1-yl]-7H-pyrrolo[2,3-d]pyrimidine] | 7.01 | 6.91
8 | C[C@H]1CN(c2ncnc3[nH]cc(-c4cnn(C)c4)c23)CCO1 [Example 121, 4-[(2S)-2-methylmorpholin-4-yl]-5-(1-methyl-1H-pyrazol-4-yl)-7H-pyrrolo[2,3-d]pyrimidine] | 7.24 | 7.23
9 | Fc1cc(F)cc(-c2c[nH]c3ncnc(N4CCOCC4)c23)c1 [Example 92, 5-(3,5-difluorophenyl)-4-(morpholin-4-yl)-7H-pyrrolo[2,3-d]pyrimidine] | 7.04 | 6.62
10 | Cc1nn(C)cc1-c1c[nH]c2ncnc(N3CCOCC3)c12 [Example 152, 5-(1,3-dimethyl-1H-pyrazol-4-yl)-4-(morpholin-4-yl)-7H-pyrrolo[2,3-d]pyrimidine] | 7.22 | 7.04
11 | N#Cc1cccc(-c2c[nH]c3ncnc(N4CCC(c5cc[nH]n5)CC4)c23)c1 [Example 34, 3-{4-[4-(1H-pyrazol-3-yl)piperidin-1-yl]-7H-pyrrolo[2,3-d]pyrimidin-5-yl}benzonitrile] | 7.16 | 6.87
12 | N#Cc1cccc(-c2c[nH]c3ncnc(N4CCCC(F)(F)C4)c23)c1 [Example 128, 3-[4-(3,3-difluoropiperidin-1-yl)-7H-pyrrolo[2,3-d]pyrimidin-5-yl]benzonitrile] | 7.10 | 6.77
13 | Fc1ccc(F)c(-c2c[nH]c3ncnc(N4CCOCC4)c23)c1 [Example 86, 5-(2,5-difluorophenyl)-4-(morpholin-4-yl)-7H-pyrrolo[2,3-d]pyrimidine] | 7.12 | 6.84
14 | c1ccc(-c2c[nH]c3ncnc(N4CCCC4)c23)cc1 [Example 18, 5-phenyl-4-(pyrrolidin-1-yl)-7H-pyrrolo[2,3-d]pyrimidine] | 7.15 | 7.33
15 | N#Cc1cccc(-c2c[nH]c3ncnc(NCCN4CCOCC4)c23)c1 [Example 42, 3-(4-{[2-(morpholin-4-yl)ethyl]amino}-7H-pyrrolo[2,3-d]pyrimidin-5-yl)benzonitrile] | 7.05 | 6.31
16 | N#Cc1cccc(-c2c[nH]c3ncnc(N4CCOC(c5ccncn5)C4)c23)c1 (stereo not drawn) [Example 141, 3-{4-[2-(pyrimidin-4-yl)morpholin-4-yl]-7H-pyrrolo[2,3-d]pyrimidin-5-yl}benzonitrile] | 7.10 | 6.71
17 | N#Cc1cccc(-c2c[nH]c3ncnc(N4CCC(=O)CC4)c23)c1 [Example 132, 3-[4-(4-oxopiperidin-1-yl)-7H-pyrrolo[2,3-d]pyrimidin-5-yl]benzonitrile] | 7.18 | 6.65
18 | OC1CCCN(c2ncnc3[nH]cc(-c4cccc(F)c4)c23)C1 (stereo not drawn) [Example 156, 1-[5-(3-fluorophenyl)-7H-pyrrolo[2,3-d]pyrimidin-4-yl]piperidin-3-ol] | 7.24 | 7.07

The remaining compounds from weak to strong by pIC50 [1], led by results:

Row | pIC50 [1] | pIC50 (mutant G2019S LRRK2) | Compound
19 | 7.25 | 7.51 | N#CC1CCCN(c2ncnc3[nH]cc(-c4cccc(CO)c4)c23)C1 (stereo not drawn) [Example 20, 1-{5-[3-(hydroxymethyl)phenyl]-7H-pyrrolo[2,3-d]pyrimidin-4-yl}piperidine-3-carbonitrile]
20 | 7.28 | 6.40 | CN(C)c1ncnc2[nH]cc(-c3cc(F)cc(C#N)c3)c12 [Example 75, 3-[4-(dimethylamino)-7H-pyrrolo[2,3-d]pyrimidin-5-yl]-5-fluorobenzonitrile]
21 | 7.28 | 6.96 | N#Cc1cccc(-c2c[nH]c3ncnc(N4CCC(O)CC4)c23)c1 [Example 109, 3-[4-(4-hydroxypiperidin-1-yl)-7H-pyrrolo[2,3-d]pyrimidin-5-yl]benzonitrile]
22 | 7.35 | 6.74 | N#Cc1cccc(-c2c[nH]c3ncnc(N4CCOC(c5nccs5)C4)c23)c1 (stereo not drawn) [Example 131, 3-{4-[2-(1,3-thiazol-2-yl)morpholin-4-yl]-7H-pyrrolo[2,3-d]pyrimidin-5-yl}benzonitrile]
23 | 7.37 | 7.54 | COc1ccccc1-c1c[nH]c2ncnc(N(C)C)c12 [Example 173, 5-(2-methoxyphenyl)-N,N-dimethyl-7H-pyrrolo[2,3-d]pyrimidin-4-amine]
24 | 7.39 | 7.31 | COc1cc(F)cc(-c2c[nH]c3ncnc(N(C)C)c23)c1 [Example 177, 5-(3-fluoro-5-methoxyphenyl)-N,N-dimethyl-7H-pyrrolo[2,3-d]pyrimidin-4-amine]
25 | 7.42 | 7.54 | OCC1CCN(c2ncnc3[nH]cc(-c4ccccc4)c23)CC1 [Example 19, [1-(5-phenyl-7H-pyrrolo[2,3-d]pyrimidin-4-yl)piperidin-4-yl]methanol]
26 | 7.43 | 7.03 | COc1cc(C#N)cc(-c2c[nH]c3ncnc(N(C)C)c23)c1 [Example 147, 3-[4-(dimethylamino)-7H-pyrrolo[2,3-d]pyrimidin-5-yl]-5-methoxybenzonitrile]
27 | 7.52 | 6.81 | N#Cc1cccc(-c2c[nH]c3ncnc(N4CC[C@H](F)C4)c23)c1 [Example 35, 3-{4-[(3S)-3-fluoropyrrolidin-1-yl]-7H-pyrrolo[2,3-d]pyrimidin-5-yl}benzonitrile]
28 | 7.60 | 7.54 | COc1ccc(F)cc1-c1c[nH]c2ncnc(N3CCC(F)CC3)c12 [Example 163, 5-(5-fluoro-2-methoxyphenyl)-4-(4-fluoropiperidin-1-yl)-7H-pyrrolo[2,3-d]pyrimidine]
29 | 7.62 | 7.48 | C[C@H]1CCCN(c2ncnc3[nH]cc(-c4cccc(S(N)(=O)=O)c4)c23)C1 [Example 46, 3-{4-[(3S)-3-methylpiperidin-1-yl]-7H-pyrrolo[2,3-d]pyrimidin-5-yl}benzenesulfonamide]
30 | 7.62 | 7.52 | COc1ccc(C#N)cc1-c1c[nH]c2ncnc(N(C)C)c12 [Example 24, 3-[4-(dimethylamino)-7H-pyrrolo[2,3-d]pyrimidin-5-yl]-4-methoxybenzonitrile]
31 | 7.64 | 7.14 | Cc1cc(-c2c[nH]c3ncnc(N4CCOCC4)c23)sn1 [Example 192, 5-(3-methyl-1,2-thiazol-5-yl)-4-(morpholin-4-yl)-7H-pyrrolo[2,3-d]pyrimidine]
32 | 7.66 | 7.36 | Cc1ccc(Cl)c(-c2c[nH]c3ncnc(N4CCOCC4)c23)c1 [Example 106, 5-(2-chloro-5-methylphenyl)-4-(morpholin-4-yl)-7H-pyrrolo[2,3-d]pyrimidine]
33 | 7.74 | 7.07 | N#Cc1cccc(-c2c[nH]c3ncnc(N4CCC(F)CC4)c23)c1F [Example 158, 2-fluoro-3-[4-(4-fluoropiperidin-1-yl)-7H-pyrrolo[2,3-d]pyrimidin-5-yl]benzonitrile]
34 | 7.77 | 7.02 | N#Cc1cccc(-c2c[nH]c3ncnc(N4CCC[C@H](O)C4)c23)c1 [Example 14, 3-{4-[(3S)-3-hydroxypiperidin-1-yl]-7H-pyrrolo[2,3-d]pyrimidin-5-yl}benzonitrile]
35 | 7.85 | 7.92 | C[C@H]1CCCN(c2ncnc3[nH]cc(-c4cnn(C)c4)c23)C1 [Example 17, 4-[(3S)-3-methylpiperidin-1-yl]-5-(1-methyl-1H-pyrazol-4-yl)-7H-pyrrolo[2,3-d]pyrimidine]
36 | 7.85 | 7.68 | N#Cc1cccc(-c2c[nH]c3ncnc(N4CCCC(N)C4)c23)c1 (stereo not drawn) [Example 129, 3-[4-(3-aminopiperidin-1-yl)-7H-pyrrolo[2,3-d]pyrimidin-5-yl]benzonitrile]
37 | 7.93 | 7.49 | O=c1cc(-c2c[nH]c3ncnc(N4CCOCC4)c23)cc[nH]1 [Example 204, 4-[4-(morpholin-4-yl)-7H-pyrrolo[2,3-d]pyrimidin-5-yl]pyridin-2(1H)-one]
38 | 8.11 | 7.02 | Cc1noc(C2CN(c3ncnc4[nH]cc(-c5cccc(C#N)c5F)c34)CCO2)n1 (single isomer, unassigned) [Example 213]
39 | 8.22 | 7.85 | Brc1cncc(-c2c[nH]c3ncnc(N4CCOCC4)c23)c1 [Example 105, 5-(5-bromopyridin-3-yl)-4-(morpholin-4-yl)-7H-pyrrolo[2,3-d]pyrimidine]

— US9156845B2, “4-(substituted amino)-7H-pyrrolo[2,3-d] pyrimidines as LRRK2 inhibitors” (Pfizer Inc., priority 2012, dated 2015)
